Assay results taken from patent US20230167068A1, “BENZOPYRAZOLE COMPOUND” (MEDSHINE DISCOVERY INC., priority 2019, published 2023).

Legend:
[1] = system: MMTV promoter luciferase reporter in HeLa cell line (GR transcription activation); experiment: MMTV transcription activation activity, luciferase reporter gene screening system (MMTV_GR transcription activation experiment); format: cell-based; settings: Homo sapiens; for Emax: HeLa, maximum effect value, positive control 1000 nM dexamethasone, read-out: TA (MMTV transcription activation activity) Effect; for EC50: absolute EC50, HeLa MMTV-luciferase cells, 18 h, max concentration 1000 nM, read-out: TA (MMTV transcription activation activity) EC50
Text: The promoter of mouse mammary tumor virus (MMTV) contains specific binding sites for activating GRs (GREs). To determine the activity of the compounds, a reporter gene (luciferase) was inserted after the MMTV promoter, and this construct was expressed in a stable manner in the genome of the HeLa cell line. MMTV promoter was activated by the test compounds to induce the expression of luciferase, and its activity was detected by luminescence measurement.
• [0442] 1) All the culture media were carefully aspirated, the cell layer was rinsed gently with an appropriate amount of DPBS, and then aspirated. • [0443] 2) An appropriate amount of 0.05% Typsine EDTA was added and incubated in a CO2 incubator for 3-5 minutes to digest the cells. • [0444] 3) The cells were resuspended with an appropriate amount of cell culture medium. • [0445] 4) The amount of cells required was calculated, and the cell concentration was 4×10^3 cells/well. • [0446] 5) The cell suspension was diluted with appropriate cell culture medium. • [0447] 6) Cell suspension was dispensed into a disposable sterile loading slot. • [0448] 7) Inoculated 30 µL per well into a 384-well plate. • [0449] 8) The cell plate was placed in a 37° C. 5% CO2 incubator for 18-24 hours.
Compounds were diluted with DMSO to 1 mM, 0.25 mM, 0.0625 mM, 0.015625 mM, 0.0039 mM, 0.0009765 mM, 0.000244 mM, 0.000061 mM, 0.00001526 mM and 0.0000038125 mM, then diluted 25-fold with serum culture medium treated with activated carbon, and finally 4x concentration compound experimental plate was obtained, prepared before use.
The final DMSO experimental concentration was 0.1%.
MMTV_GR transcription activation activity experiment • [0458] 1) Inoculated cells: Fresh cells were inoculated into 384 white transparent bottom experimental plates at 4×10^3 cells/30 µL/well, and incubated at 37° C. 5% CO2 incubator for 24 hours. • [0459] 2) Compound preparation: The compound plate was prepared before the experiment, and the reference compound (dexamethasone) and the test compound of 4x concentration were prepared. Finally, the experimental plate of 4x concentration compound was obtained. • [0460] 3) Added compound: 10 µL of 4x compound was transferred with Bravo and added to cell plate. Incubated for 18 hours in a 37° C. 5% CO2 incubator. • [0461] 4) 30 µL of Bright-Glo fluorescent detection reagent was transferred to the cell plate. • [0462] 5) Centrifugal incubation for 2 minutes. • [0463] 6) The fluorescence value was measured with the Envision plate reader.
Positive control: 1000 nM dexamethasone (0.1% DMSO)
Negative control: 0.1% DMSO
Test compound: Maximum concentration of 1000 nM, 4-fold dilution, 10 wells in total, repeated.
Dexamethasone: Maximum concentration of 1000 nM, 4-fold dilution, 10 wells in total, repeated.
The graphing software GraphPad Prism5 was used to create the concentration curves of the tested compounds and calculate the IC50 values.

[2] = In vivo pharmacokinetic properties study in male SD rats; settings: rat, plasma, iv 2 mg/kg; for half-life: read-out: T½ (converted); for Vd: read-out: Vdss
Description: Experimental purpose: The purpose of this study was to determine the pharmacokinetic parameters of compounds in male SD rats.
Experimental methods: In this project, two male SD rats were intravenously administered with a dose of 2 mg/kg and a concentration of 0.4 mg/mL. Plasma samples were collected at 0 h (before administration) and 0.0833, 0.25, 0.5, 1, 2, 4, 6, 8, 24 h after administration. Then the collected samples were analyzed by LC-MS/MS and the data were collected. The collected analytical data were used to calculate the relevant pharmacokinetic parameters using Phoenix WinNonlin 6.3 software.

CYP3A4 = biological target: T1, CYP3A4 (Homo sapiens, UniProt P08684); experiment: Human liver microsomal CYP repression experiment; format: in vitro ADME
T1 construct: incubation system containing human liver microsomes, probe substrates, and co-factors; tissue Corning Inc. or other suppliers; host or cells: mixed (pooled) human liver microsomes
Description: The purpose of the research project was to evaluate the repression of the test sample on human liver microsomal cytochrome P450 isoenzyme (CYP3A4) using a 5-in-1 probe substrate of CYP isoenzyme.
Mixed human liver microsomes (HLM) were purchased from Corning Inc. (Steuben, New York, USA) or other suppliers and stored at temperatures below -70° C. before use.
The diluted series concentration of the test sample was added to the incubation system containing human liver microsomes, probe substrates, and co-factors of the circulating system, and the control without the test sample but with solvent was used as the enzyme activity control (100%). The concentration of metabolites produced by the probe substrate in the sample was determined by liquid chromatography-tandem mass spectrometry (LC-MS/MS). Non-linear regression analysis of the mean percent activity of the test sample versus concentration was performed using SigmaPlot (V. 11). The IC50 values were calculated by a three- or four-parameter inverse logarithmic equation.

T1 sequence (P08684 whole entry): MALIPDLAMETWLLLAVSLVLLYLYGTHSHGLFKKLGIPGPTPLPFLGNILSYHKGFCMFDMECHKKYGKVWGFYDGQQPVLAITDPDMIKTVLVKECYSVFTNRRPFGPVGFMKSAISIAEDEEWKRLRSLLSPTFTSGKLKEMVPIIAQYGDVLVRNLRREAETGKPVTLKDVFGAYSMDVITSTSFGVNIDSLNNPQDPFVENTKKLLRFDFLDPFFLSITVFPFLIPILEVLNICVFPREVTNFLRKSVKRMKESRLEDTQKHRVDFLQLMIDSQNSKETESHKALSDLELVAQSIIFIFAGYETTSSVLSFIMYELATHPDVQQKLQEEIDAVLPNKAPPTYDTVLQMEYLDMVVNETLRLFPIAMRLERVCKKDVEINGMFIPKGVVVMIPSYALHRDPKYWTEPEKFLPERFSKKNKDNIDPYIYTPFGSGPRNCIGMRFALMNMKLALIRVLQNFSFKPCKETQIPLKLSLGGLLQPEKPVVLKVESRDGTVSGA

SMILES: C[C@H](NC(=O)C(C)(F)F)[C@H](Oc1ccc2c(cnn2-c2ccc3nnnn3c2)c1)c1cc(F)cc(F)c1 [WX035]
- Emax [1]: 82.5%
- EC50 [1]: 5.59 nM

SMILES: CC(C)[C@H](NC(=O)C(C)(F)F)[C@H](Oc1ccc2c(cnn2-c2ccc3nccn3c2)c1)c1ccccc1 [WX004]
- Emax [1]: 63.7%
- EC50 [1]: 5.86 nM

SMILES: CC(C)[C@H](NC(=O)C(C)(F)F)[C@H](Oc1ccc2c(cnn2-c2ccc3nncn3c2)c1)c1cc(F)cc(F)c1 [WX017]
- Emax [1]: 81.3%
- EC50 [1]: 2.56 nM

SMILES: CC(C)[C@H](NC(=O)C(C)(F)F)[C@H](Oc1ccc2c(cnn2-c2ccc3nncn3c2)c1)c1ccccc1 [WX018]
- Emax [1]: 69.4%
- EC50 [1]: 12.3 nM

SMILES: C[C@H](NC(=O)C(C)(F)F)[C@H](Oc1ccc2c(cnn2-c2ccc3nccn3c2)c1)c1cc(F)cc(F)c1 [WX003]
- Emax [1]: 91.4%
- EC50 [1]: 0.229 nM

SMILES: C[C@H](NC(=O)C(C)(F)F)[C@H](Oc1ccc2c(cnn2-c2cn(C)nn2)c1)c1cc(F)cc(F)c1 [WX051]
- clearance [2]: 9.29 mL/min/kg
- half-life [2]: 3.54 h
- Vd [2]: 2.61 L/kg
- Emax [1]: 70.8%
- EC50 [1]: 4.93 nM

SMILES: C[C@H](NC(=O)C(C)(F)F)[C@H](Oc1ccc2c(cnn2-c2ccc3nncn3c2)c1)c1cc(F)cc(F)c1 [WX019]
- repression on CYP3A4 (in words) (CYP3A4; conclusion on Table 3): significantly improve the repression of CYP3A4
- IC50 (CYP3A4; mixed human liver microsomes, 5-in-1 probe substrate): 9120 nM
- clearance [2]: 9.74 mL/min/kg
- half-life [2]: 3 h
- Vd [2]: 1.28 L/kg
- Emax [1]: 75.2%
- EC50 [1]: 0.94 nM

SMILES: C[C@H](NC(=O)C(C)(F)F)[C@H](Oc1ccc2c(cnn2-c2ccc3ncnn3c2)c1)c1cc(F)cc(F)c1 [WX034]
- Emax [1]: 89.2%
- EC50 [1]: 3.2 nM

SMILES: C[C@H](NC(=O)C(C)(F)F)[C@H](Oc1ccc2c(cnn2-c2cnn(C)c2)c1)c1ccccc1 [WX043]
- Emax [1]: 72.8%
- EC50 [1]: 5.03 nM

SMILES: C[C@H](NC(=O)C(C)(F)F)[C@H](Oc1ccc2c(cnn2-c2ccc3c(c2)CCCO3)c1)c1cc(F)cc(F)c1 [WX002]
- Emax [1]: 76%
- EC50 [1]: 2.07 nM
